Experimental data as given in US8633242B2, “Benzylidene indanones and processes for preparation and use thereof” (Council of Scientific and Industrial Research, priority 2011, dated 2014).
pIC50: −log10 of the molar value.

Assays:
[1] = system: A549 (Lung); experiment: Sulphorhodamine B cytotoxicity assay, A549; format: cell-based, human; set-up: key to Human cancer cell lines IC50, A549 (Lung): Inactive: inactive, if IC50 > 100 μM; settings: SRB assay, 48 hours incubation; for pIC50: Homo sapiens, A549, read-out: Human cancer cell lines IC50, A549 (Lung)
Protocol: (§1) The benzylidene analogues were evaluated by Sulphorhodamine B Assay as per reported method [Skehan et al., J. Natl. Cancer Inst. 1990, 82, 1107]. The human cancer cell lines procured from National Cancer institute, Frederick, U.S.A. were used in present study. Cells were grown in tissue culture flasks in complete growth medium (RPMI-1640 medium with 2 mM glutamine, pH 7.4 supplemented with 10% fetal bovine serum, 100 μg/ml streptomycin and 100 units/ml penicillin) in a carbon dioxide incubator (37° C., 5% CO2, 90% RH). The cells at subconfluent stage were harvested from the flask by treatment with trypsin (0.05% in PBS (pH 7.4) containing 0.02% EDTA). Cells with viability of more than 98%, as determined by trypan blue exclusion, were used for determination of cytotoxicity. The cell suspension required concentration of cells was prepared in complete growth medium. Stock solution of 2×10^−2 M of compounds were prepared in DMSO and further dilution was carried out complete growth medium containing 50 μg/ml of gentamycin to obtained working test solution of required concentration. In vitro cytotoxicity against various human cancer cell lines was determined using 96-well cell culture plates. The 100 μl of cell suspension was added to each well of the 96-well cell culture plates. The cells were allowed to grow in CO2 incubator (37° C., 5% CO2, 90% RH) for 24 hours. The test materials in complete growth medium (100 μl) were added after 24 hours incubation to the wells containing cell suspension. The plates were further incubated for 48 hours (37° C. in an atmosphere of 5% CO2 and 90% relative humidity) in a carbon dioxide incubator after addition of test material and then the cell growth was stopped by gently layering trichloroacetic acid (50% TCA, 50 μl) on top of the medium in all the wells. The plates were incubated at 4° C. for one hour to fix the cells attached to the bottom of the wells. The liquid of all the wells was gently pipetted out and discarded. The plates were washed five times with distilled water to remove TCA, growth medium low molecular weight metabolites, serum proteins etc. and air-dried. Cell growth was measured by staining with sulforhodamine B dye. The adsorbed dye was dissolved in Tris-HCl Buffer (100 μl/well, 0.01M, pH 10.4) and plates were gently stirred for 10 minutes on a mechanical stirrer. The optical density (OD) was recorded on ELISA reader at 540 nm. 5-Fluorouracil, Paclitaxel (Taxol), Mitomycin-c and Adriamycin were used as positive controls.

[2] = system: PC-3 (prostate); experiment: Sulphorhodamine B cytotoxicity assay, PC-3; format: cell-based, human; set-up: key to Human cancer cell lines IC50, PC-3 (prostate): Inactive: inactive, if IC50 > 100 μM; settings: SRB assay, 48 hours incubation; for pIC50: Homo sapiens, read-out: Human cancer cell lines IC50, PC-3 (prostate)
Protocol: as §1

[3] = system: HCT (Colon); experiment: Sulphorhodamine B cytotoxicity assay, HCT; format: cell-based, human; set-up: key to Human cancer cell lines IC50, HCT (Colon): Inactive: inactive, if IC50 > 100 μM; settings: SRB assay, 48 hours incubation; for pIC50: Homo sapiens, read-out: Human cancer cell lines IC50, HCT (Colon)
Protocol: as §1

[4] = system: THP-1 (Leukemia); experiment: Sulphorhodamine B cytotoxicity assay, THP-1; format: cell-based, human; set-up: key to Human cancer cell lines IC50, THP-1 (Leukemia): Inactive: inactive, if IC50 > 100 μM; settings: for pIC50: Homo sapiens, THP-1, read-out: Human cancer cell lines IC50, THP-1 (Leukemia); for pIC50 / Human cancer cell lines IC50, THP-1 (Leukemia): SRB assay, 48 hours incubation
Protocol: as §1

[5] = system: HeLa (Cervix); experiment: Sulphorhodamine B cytotoxicity assay, HeLa; format: cell-based, human; set-up: key to Human cancer cell lines IC50, HeLa (Cervix): Inactive: inactive, if IC50 > 100 μM; settings: SRB assay, 48 hours incubation; for pIC50: Homo sapiens, HeLa, read-out: Human cancer cell lines IC50, HeLa (Cervix)
Protocol: as §1

[6] = system: MCF-7 (Breast cancer); experiment: Sulphorhodamine B cytotoxicity assay, MCF-7; format: cell-based, human; settings: for pIC50: Homo sapiens, MCF7, SRB assay, 48 hours incubation, read-out: Human cancer cell lines IC50, MCF-7 (Breast cancer)
Protocol: as §1

[7] = system: DU-145 (prostate); experiment: Sulphorhodamine B cytotoxicity assay, DU-145; format: cell-based, human; set-up: key to Human cancer cell lines IC50, DU-145 (prostate): Inactive: inactive, if IC50 > 100 μM; settings: SRB assay, 48 hours incubation; for pIC50: Homo sapiens, DU-145, read-out: Human cancer cell lines IC50, DU-145 (prostate)
Protocol: as §1

[8] = system: tubulin protein; experiment: In-vitro tubulin polymerisation inhibition assay; format: biochemical; set-up: key to Tubulin polymerisation inhibition IC50: Inactive: inactive, if IC50 > 10 μM; settings: for pIC50: read-out: Tubulin polymerisation inhibition IC50; for pIC50 / Tubulin polymerisation inhibition IC50: tubulin 3 mg/mL, 37° C., 340 nm, 1 h
Protocol: The tubulin polymerization experiment was performed using ‘assay kit’ (Cytoskeleton USA) following manufacturer's protocol based on the procedure described by of Shelanski et al. (1973) and Lee et al. (1977). Briefly, tubulin protein (3 mg/mL) in tubulin polymerization buffer (80 mM PIPES, pH 6.9, 2 mM MgCl2, 0.5 mM EGTA, 1 mM GTP and 15% glycerol) was placed in pre-warmed 96-well microtiter plates at 37° C. in the presence of test compounds with variable concentrations. All samples were mixed well and polymerization was monitored kinetically at 340 nm every min for 1 h using a Spectramax plate reader. Podophyllotoxin and etoposide were used as positive controls and DMSO as negative control. The IC50 value was determined from dose-dependent analysis and is defined as the concentration that inhibits the rate of polymerization by 50%.
Podophyllotoxin and etoposide, standard tubulin polymerisation inhibitors were used as positive controls.

| Compound | Human cancer cell lines IC50, A549 (Lung) [1] | Human cancer cell lines IC50, PC-3 (prostate) [2] | Human cancer cell lines IC50, HCT (Colon) [3] | pIC50 [4] | Human cancer cell lines IC50, HeLa (Cervix) [5] | pIC50 [6] | Human cancer cell lines IC50, DU-145 (prostate) [7] | inhibition of tubulin polymerisation, in words [8] | pIC50 [8] | melting point | pIC50 [1] | pIC50 [2] | pIC50 [3] | pIC50 [5] | Tubulin polymerisation inhibition IC50 [8] | Human cancer cell lines IC50, THP-1 (Leukemia) [4] | anticancer activity against human breast cancer cells (MCF-7), in words [6] | activity against leukemia cell lines (THP), in words [4] | pIC50 [7] |
| --- | --- | --- | --- | --- | --- | --- | --- | --- | --- | --- | --- | --- | --- | --- | --- | --- | --- | --- | --- |
| COc1ccc(/C=C2\C(=O)c3cc(OC)c(OC)c(OC)c3C2c2cc(OC)c(OC)c(OC)c2)cc1OC (stereo not shown) [Compound 13, 2-(3″,4″-dimethoxybenzylidene), 3-(3′,4′,5′-trimethoxyphenyl)-4,5,6-trimethoxy indan-1-one] | Inactive | Inactive | Inactive | 4.21 | Inactive | 4.09 | Inactive | strong inhibition | 6.21 | 179 to 180 °C |  |  |  |  |  |  |  |  |  |
| COc1cc(C2C(=Cc3ccccc3)C(=O)c3cc(OC)c(OC)c(OC)c32)cc(OC)c1OC (stereo not shown) [Compound 14, 2-benzylidene, 3-(3′,4′,5′-trimethoxyphenyl)-4,5,6-trimethoxy indan-1-one] |  |  |  | 4.49 |  | 4.37 | Inactive |  |  | 139 to 141 °C | 4.32 | 4.30 | 4.83 | 4.85 | Inactive |  |  |  |  |
| COc1cc(C2/C(=C/c3ccc(OC)c(OC)c3OC)C(=O)c3cc(OC)c(OC)c(OC)c32)cc(OC)c1OC (stereo not shown) [Compound 15, 2-(2″,3″,4″-trimethoxybenzylidene), 3-(3′,4′,5′-trimethoxyphenyl)-4,5,6-trimethoxy, indan-1-one] |  |  |  |  | Inactive | 5.05 | Inactive |  |  | 163 to 165 °C | 4.03 | 4.07 | 4.10 |  | Inactive | Inactive | potent anticancer activity |  |  |
| COc1cc(OC)c(OC)cc1/C=C1\C(=O)c2cc(OC)c(OC)c(OC)c2C1c1cc(OC)c(OC)c(OC)c1 (stereo not shown) [Compound 16, 2-(2″,4″,5″-trimethoxybenzylidene), 3-(3′,4′,5′-trimethoxyphenyl)-4,5,6-trimethoxy indan-1-one] |  |  | Inactive | 4.09 | Inactive | 4.25 | Inactive | strong inhibition | 5.38 | 203 to 205 °C | 4.06 | 4.19 |  |  |  |  |  |  |  |
| COc1cc(C2/C(=C/c3cccc4c3OCO4)C(=O)c3cc(OC)c(OC)c(OC)c32)cc(OC)c1OC (stereo not shown) [Compound 17, 2-(2″,3″-methylenedioxybenzlidene), 3-(3′,4′,5′-trimethoxyphenyl)-4,5,6-trimethoxy indan-1-one] |  | Inactive |  |  | Inactive | 4.24 | Inactive |  |  | 180 to 182 °C | 4.09 |  | 4.34 |  | Inactive | Inactive |  |  |  |
| COc1cc(C2/C(=C/c3ccc(F)cc3)C(=O)c3cc(OC)c(OC)c(OC)c32)cc(OC)c1OC (stereo not shown) [Compound 18, 2-(4″-fluorobenzylidene), 3-(3′,4′,5′-trimethoxyphenyl)-4,5,6-trimethoxy indan-1-one] |  |  | Inactive | 5.54 |  | 6.17 |  | strong inhibition | 6.14 | 156 to 158 °C | 4.57 | 4.41 |  | 4.18 |  |  | potent anticancer activity | potent activity | 4.27 |
| COc1cc(C2/C(=C/c3ccc(C(F)(F)F)cc3)C(=O)c3cc(OC)c(OC)c(OC)c32)cc(OC)c1OC (stereo not shown) [Compound 20, 2-(4″-trifluoromethylbenzylidene), 3-(3′,4′,5′-trimethoxyphenyl)-4,5,6-trimethoxy indan-1-one] |  |  |  | 5.06 | Inactive | 4.16 | Inactive | strong inhibition | 6.22 | 188 to 190 °C | 4.21 | 4.55 | 4.04 |  |  |  |  | potent activity |  |
| COc1ccc(/C=C2\C(=O)c3cc(OC)c(OC)c(OC)c3C2c2cc(OC)c(OC)c(OC)c2)c(OC)c1 (stereo not shown) [Compound 21, 2-(2″,4″-dimethoxybenzylidene), 3-(3′,4′,5′-trimethoxyphenyl)-4,5,6-trimethoxy indan-1-one] |  |  |  |  | Inactive | 6.00 |  | strong inhibition | 5.52 | 191 to 192 °C | 4.15 | 4.14 | 4.95 |  |  | Inactive | potent anticancer activity |  | 5.69 |
